Data reported in US20070010671A1, “Novel quinazoline derivatives and methods of treatment related to the use thereof” (priority 2003, published 2007).

These molecules were tested against MCH receptor (Homo sapiens, UniProt Q99705) (assay: High throughput functional screening FLIPR/FDSS6000: inhibition of MCH-evoked intracellular Ca2+ changes). Conditions: class by percent of control at 10^-7 M or IC50.
Type: cell-based
How it was run: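 Antagonism is measured as inhibition of the intracellular calcium rise triggered by 50 nM MCH in cells bearing a constitutively active, non-endogenous form of the receptor. Cells are dye-loaded with Fluo4-AM and exposed to compound for 3 min at 37° C before agonist addition.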

| Compound | class |
| --- | --- |
| CN(C)c1nc(N[C@H]2CC[C@@H](NC(=S)Nc3ccc(F)c(Cl)c3)CC2)nc2ccccc12 [compound 384] | 3 (Class 3: The value of percent of control at 10^−7 M was more than 60% or the value of IC50 was more than 200 nM.) |
| COc1cccc(NC(=S)N[C@H]2CC[C@@H](Nc3nc(N(C)C)c4ccccc4n3)CC2)c1 [compound 228, N-(cis-4-{[4-(dimethylamino)quinazolin-2-yl]amino}cyclohexyl)-N′-(3-methoxyphenyl)thiourea] | 2 (Class 2: The value of percent of control at 10^−7 M was from 40% to 60% or the value of IC50 was from 50 nM to 200 nM.) |
| CN(C)c1nc(N[C@H]2CC[C@@H](CNC(=O)Nc3cccc(C(F)(F)F)c3)CC2)nc2ccccc12 [compound 456] | 3 (Class 3: The value of percent of control at 10^−7 M was more than 60% or the value of IC50 was more than 200 nM.) |
| CC(C)NC(=O)NC[C@H]1CC[C@@H](Nc2nc(N(C)C)c3ccccc3n2)CC1 [compound 443] | 3 (Class 3: The value of percent of control at 10^−7 M was more than 60% or the value of IC50 was more than 200 nM.) |
| CN(C)c1nc(N[C@H]2CC[C@@H](NC(=S)Nc3cccc(C#N)c3)CC2)nc2ccccc12 [compound 225] | 3 (Class 3: The value of percent of control at 10^−7 M was more than 60% or the value of IC50 was more than 200 nM.) |
| CN(C)c1nc(N[C@H]2CC[C@@H](NC(=S)NC3C[C@@H]4CC[C@H]3C4)CC2)nc2ccccc12 (stereo partly drawn) [compound 239] | 2 (Class 2: The value of percent of control at 10^−7 M was from 40% to 60% or the value of IC50 was from 50 nM to 200 nM.) |
| CC(NC(=O)NC[C@H]1CC[C@@H](Nc2nc(N(C)C)c3ccccc3n2)CC1)c1cccc2ccccc12 (relative stereo) [compound 461] | 3 (Class 3: The value of percent of control at 10^−7 M was more than 60% or the value of IC50 was more than 200 nM.) |
| CN(C)c1nc(N[C@H]2CC[C@@H](CNC(=O)Nc3ccc(-c4ccccc4)cc3)CC2)nc2ccccc12 [compound 562] | 3 (Class 3: The value of percent of control at 10^−7 M was more than 60% or the value of IC50 was more than 200 nM.) |
| CN(C)c1nc(N[C@H]2CC[C@@H](CNC(=S)NC3CCCC3)CC2)nc2ccccc12 [compound 586] | 3 (Class 3: The value of percent of control at 10^−7 M was more than 60% or the value of IC50 was more than 200 nM.) |
| CN(C)c1nc(N[C@H]2CC[C@@H](NC(=S)Nc3ccc(Sc4ccc([N+](=O)[O-])cc4)cc3)CC2)nc2ccccc12 [compound 318] | 3 (Class 3: The value of percent of control at 10^−7 M was more than 60% or the value of IC50 was more than 200 nM.) |
| COC(=O)c1ccccc1NC(=O)NC[C@H]1CC[C@@H](Nc2nc(N(C)C)c3ccccc3n2)CC1 [compound 470, methyl 2-[({[(cis-4-{[4-(dimethylamino)quinazoalin-2-yl]amino}cyclohexyl)methyl]amino}carbonyl)amino]benzoate] | 3 (Class 3: The value of percent of control at 10^−7 M was more than 60% or the value of IC50 was more than 200 nM.) |
| CN(C)c1nc(N[C@H]2CC[C@@H](NC(=S)Nc3ccc(-n4cccn4)cc3)CC2)nc2ccccc12 [compound 397] | 3 (Class 3: The value of percent of control at 10^−7 M was more than 60% or the value of IC50 was more than 200 nM.) |
| CN(C)c1nc(N[C@H]2CC[C@@H](CNC(=O)Nc3ccc(Br)cc3Br)CC2)nc2ccccc12 [compound 477] | 3 (Class 3: The value of percent of control at 10^−7 M was more than 60% or the value of IC50 was more than 200 nM.) |
| CN(C)c1nc(N[C@H]2CC[C@@H](CNC(=O)Nc3ccc(F)c(F)c3)CC2)nc2ccccc12 [compound 522, N-(3,4-difluorophenyl)-N′-[(cis-4-{[4-(dimethylamino)quinazolin-2-yl]amino}cyclohexyl)methyl]urea] | 1 (Class 1: The value of percent of control at 10^−7 M was less than 40% or the value of IC50 was less than 50 nM.) |

Same assay, conditions: class by percent of control at 10^-7 M or by IC50; read-out: class

| IC50 [nM] | Compound |
| --- | --- |
| < 50 | Cc1ccccc1NC(=O)N[C@H]1CC[C@@H](Nc2nc(N(C)C)c3ccccc3n2)CC1 [compound 60, N-(cis-4-{[4-(dimethylamino)quinazolin-2-yl]amino}cyclohexyl)-N′-(2-methylphenyl)urea] |
| > 200 | Cc1ccc(NC(=O)N[C@H]2CC[C@@H](Nc3nc(N(C)C)c4ccccc4n3)CC2)cc1Cl [compound 64] |
| < 50 | CN(C)c1nc(N[C@H]2CC[C@@H](NC(=O)Nc3ccc(Cl)cc3C(F)(F)F)CC2)nc2ccccc12 [compound 145, N-[4-chloro-2-(trifluoromethyl)phenyl]-N′-(cis-4-{[4-(dimethylamino)quinazolin-2-yl]amino}cyclohexyl)urea] |
| < 50 | CN(C)c1nc(N[C@H]2CC[C@@H](NC(=O)Nc3c(F)cc(Br)cc3Br)CC2)nc2ccccc12 [compound 76, N-(2,4-dibromo-6-fluorophenyl)-N′-(cis-4-{[4-(dimethylamino)quinazolin-2-yl]amino}cyclohexyl)urea] |
| 50 to 200 | CN(C)c1nc(N[C@H]2CC[C@@H](NC(=S)NC3CCCCC3)CC2)nc2ccccc12 [compound 161, N-cyclohexyl-N′-(cis-4-{[4-(dimethylamino)quinazolin-2-yl]amino}cyclohexyl)thiourea] |
| < 50 | CC(NC(=O)NC1CCC(Nc2nc(N(C)C)c3ccccc3n2)CC1)c1ccccc1 (stereo not drawn) [compound 66, 1-[4-(4-Dimethylamino-quinazolin-2-ylamino)-cyclohexyl]-3-(1-phenyl-ethyl)-urea] |
| < 50 | CCc1ccccc1NC(=O)N[C@H]1CC[C@@H](Nc2nc(N(C)C)c3ccccc3n2)CC1 [compound 95, N-(cis-4-{[4-(dimethylamino)quinazolin-2-yl]amino}cyclohexyl)-N′-(2-ethylphenyl)urea] |
| > 200 | CN(C)c1nc(N[C@H]2CC[C@@H](CNC(=O)OCCOCc3ccccc3)CC2)nc2ccccc12 [compound 866] |

Same assay, conditions: class by percent of control at 10^−7 M or by IC50; read-out: class

| IC50 [nM] | Compound |
| --- | --- |
| < 50 | COc1cccc(Oc2ncccc2C(=O)N[C@H]2CC[C@@H](Nc3nc(N(C)C)c4ccccc4n3)CC2)c1OC [Example 1040, 2-(2,3-dimethoxyphenoxy)-N-(cis-4-{[4-(dimethylamino)quinazolin-2-yl]-amino}cyclohexyl)nicotinamide] |
| < 50 | CN(C)c1nc(N[C@H]2CC[C@@H](C(=O)NCc3cc(F)ccc3F)CC2)nc2ccccc12 [Example 1158, cis-N-(2,5-difluorobenzyl)-4-{[4-(dimethylamino)quinazolin-2-yl]amino}cyclohexanecarboxamide] |
| > 200 | CN(C)c1nc(N[C@H]2CC[C@@H](CNC(=O)C(O)c3ccc(Cl)cc3)CC2)nc2ccccc12 (relative stereo) [Example 1099, 2-(4-chlorophenyl)-N-[(cis-4-{[4-(dimethylamino)quinazolin-2-yl]amino}cyclohexyl)methyl]-2-hydroxyacetamide] |
| < 50 | COc1cccc(OCC(=O)N[C@H]2CC[C@@H](Nc3nc(N(C)C)c4ccccc4n3)CC2)c1 [Example 1081, N-(cis-4-{[4-(dimethylamino)quinazolin-2-yl]amino}cyclohexyl)-2-(3-methoxyphenoxy)acetamide] |
| 50 to 200 | CN(C)c1nc(N[C@H]2CC[C@@H](C(=O)NCc3ccc(C(F)(F)F)cc3)CC2)nc2cc(F)c(F)cc12 [Example 999, cis-4-{[4-(dimethylamino)-6,7-difluoroquinazolin-2-yl]amino}-N-[4-(trifluoromethyl)benzyl]cyclohexanecarboxamide] |
